# Experimental data as given in patent US11806323B2, “Topical anesthetics” (PTC Innovations, LLC, priority 2022, dated 2023).
# Where two headings read alike, the source gives them in different places.
# Columns and labels:
# [1] = molecular target: T1, Nav1.7 (Homo sapiens, UniProt Q15858); assay: Patch clamp testing, Nav1.7 ion channel inhibition (SyncroPatch 384PE); type: cell-based
# T1 construct: ChanTest Corp; host or cells: CHO cells (Chinese hamster)
# Experimental: An examination of the in vitro effects of the compounds consistent with the present disclosure on ion channels Nav1.5 (a sodium voltage-gated channel alpha subunit found predominantly in cardiac muscle cells) and Nav1.7 (a sodium voltage-gated channel alpha subunit normally expressed in high levels in nociceptive pain neurons at dorsal root ganglion (DRG) and trigeminal ganglion and in sympathetic ganglion neurons) was performed using adult epithelial (ovarian) tissue CHO cells of Chinese hamsters (C. griseus) […] transfected with human ion channel cDNAs (ATCC, Manassas, VA; ChanTest Corp., Cleveland, OH). Cells were cultured in Ham's F-12 medium supplemented with 10% fetal bovine serum, 100 U/mL penicillin G sodium, 100 μg/mL streptomycin sulfate, and 500 μg/mL G418 aminoglycoside antibiotic.
# (§1) Each compound was analyzed at concentrations of 1000 μM, 300 μM, 100 μM, 30 μM, 10 μM, 3 μM, 1 μM, and 0.3 μM. […] All tested compound formulations contained 0.3% DMSO. Each concentration of each compound was loaded into a well of a 384-well polypropylene compound plate using an automated liquid handling system (Integra Assist Plus, Integra) and then placed in the plate well of SyncroPatch 384PE (SP384PE; Nanion Technologies, Livingston, NJ) immediately before application of the cells.
# Observed IC50 values of the channel current inhibition for each test article are provided in Table 8 (Nav1.5 ion channel inhibition) and Table 9 (Nav1.7 ion channel inhibition).
# [2] = molecular target: T2, Nav1.5 (Homo sapiens, UniProt Q14524); assay: Patch clamp testing, Nav1.5 ion channel inhibition (SyncroPatch 384PE); type: cell-based
# T2 construct: ChanTest Corp; host or cells: CHO cells (Chinese hamster)
# T2 sequence (Q14524 whole entry): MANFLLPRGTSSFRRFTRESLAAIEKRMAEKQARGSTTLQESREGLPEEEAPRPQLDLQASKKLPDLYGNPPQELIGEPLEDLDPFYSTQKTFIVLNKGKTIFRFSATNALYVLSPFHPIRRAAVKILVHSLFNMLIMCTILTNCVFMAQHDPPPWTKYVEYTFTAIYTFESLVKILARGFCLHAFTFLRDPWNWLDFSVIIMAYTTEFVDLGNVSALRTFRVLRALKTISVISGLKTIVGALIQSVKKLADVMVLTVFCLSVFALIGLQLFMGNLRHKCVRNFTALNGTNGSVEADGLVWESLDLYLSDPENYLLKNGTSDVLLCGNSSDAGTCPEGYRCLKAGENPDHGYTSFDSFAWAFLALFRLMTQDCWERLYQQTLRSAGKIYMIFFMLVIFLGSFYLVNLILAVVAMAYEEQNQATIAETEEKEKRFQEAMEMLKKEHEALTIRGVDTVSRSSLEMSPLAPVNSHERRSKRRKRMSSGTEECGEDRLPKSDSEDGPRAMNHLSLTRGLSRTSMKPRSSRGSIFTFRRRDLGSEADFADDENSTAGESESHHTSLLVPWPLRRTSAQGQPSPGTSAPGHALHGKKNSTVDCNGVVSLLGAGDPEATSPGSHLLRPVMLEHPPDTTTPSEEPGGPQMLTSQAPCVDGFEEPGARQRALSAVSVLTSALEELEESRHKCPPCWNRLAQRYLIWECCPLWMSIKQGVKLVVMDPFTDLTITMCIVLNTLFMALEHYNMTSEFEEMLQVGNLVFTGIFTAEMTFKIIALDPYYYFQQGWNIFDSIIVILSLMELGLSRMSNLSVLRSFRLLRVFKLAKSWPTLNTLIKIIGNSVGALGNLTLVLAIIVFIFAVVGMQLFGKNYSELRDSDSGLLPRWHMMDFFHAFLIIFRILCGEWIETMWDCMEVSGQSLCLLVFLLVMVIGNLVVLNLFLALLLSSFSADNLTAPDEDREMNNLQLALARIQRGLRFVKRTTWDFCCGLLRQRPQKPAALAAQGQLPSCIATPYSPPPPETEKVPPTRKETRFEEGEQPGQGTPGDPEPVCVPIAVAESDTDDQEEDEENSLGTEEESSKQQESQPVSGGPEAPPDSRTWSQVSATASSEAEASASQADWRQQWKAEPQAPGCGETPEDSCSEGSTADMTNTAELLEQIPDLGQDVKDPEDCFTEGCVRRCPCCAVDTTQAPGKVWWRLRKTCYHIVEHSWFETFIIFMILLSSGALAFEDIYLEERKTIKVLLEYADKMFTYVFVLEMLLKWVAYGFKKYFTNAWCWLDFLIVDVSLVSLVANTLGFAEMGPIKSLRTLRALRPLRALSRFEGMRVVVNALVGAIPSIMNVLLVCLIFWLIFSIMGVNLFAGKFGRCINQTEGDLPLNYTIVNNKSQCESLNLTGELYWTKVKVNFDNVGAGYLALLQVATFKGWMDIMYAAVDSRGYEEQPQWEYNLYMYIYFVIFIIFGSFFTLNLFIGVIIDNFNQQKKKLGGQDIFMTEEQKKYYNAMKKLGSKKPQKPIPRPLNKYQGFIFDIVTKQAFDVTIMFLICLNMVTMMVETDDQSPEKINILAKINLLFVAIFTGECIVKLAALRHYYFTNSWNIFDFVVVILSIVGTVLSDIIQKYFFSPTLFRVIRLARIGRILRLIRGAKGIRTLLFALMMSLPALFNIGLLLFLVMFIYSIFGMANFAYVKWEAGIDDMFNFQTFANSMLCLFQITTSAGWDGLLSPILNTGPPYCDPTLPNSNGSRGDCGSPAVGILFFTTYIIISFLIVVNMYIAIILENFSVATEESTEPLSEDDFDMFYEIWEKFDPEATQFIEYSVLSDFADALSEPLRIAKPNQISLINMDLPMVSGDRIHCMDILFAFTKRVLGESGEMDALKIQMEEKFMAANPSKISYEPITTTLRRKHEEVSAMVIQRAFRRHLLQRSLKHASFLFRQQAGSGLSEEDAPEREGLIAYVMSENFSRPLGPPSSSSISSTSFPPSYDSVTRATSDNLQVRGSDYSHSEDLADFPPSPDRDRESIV
# Experimental: Cells were cultured in Ham's F-12 medium supplemented with 10% fetal bovine serum, 100 U/mL penicillin G sodium, 100 μg/mL streptomycin sulfate, and 500 μg/mL G418 aminoglycoside antibiotic.
# as §1
# [3] = TP1A = Tonic Block, CHO cells transfected with human ion channel cDNA, 0.3% DMSO, read-out: Inhibition of Nav1.7 Ion Channel IC50, TP1A
# [4] = TP2A = Inactivated State-Dependent Block, CHO cells transfected with human ion channel cDNA, 0.3% DMSO, read-out: Inhibition of Nav1.7 Ion Channel IC50, TP2A
# [5] = TP25B = Use-Dependent Block, CHO cells transfected with human ion channel cDNA, 0.3% DMSO, read-out: Inhibition of Nav1.7 Ion Channel IC50, TP25B
# [6] = Inhibition of Nav1.5 Ion Channel IC50, TP1A, TP1A = Tonic Block, CHO cells transfected with human ion channel cDNA, 0.3% DMSO
# [7] = Inhibition of Nav1.5 Ion Channel IC50, TP2A, TP2A = Inactivated State-Dependent Block, CHO cells transfected with human ion channel cDNA, 0.3% DMSO
# [8] = Inhibition of Nav1.5 Ion Channel IC50, TP25B, TP25B = Use-Dependent Block, CHO cells transfected with human ion channel cDNA, 0.3% DMSO
# [9] = read-out: Inhibition of Nav1.7 Ion Channel IC50, TP25B, TP25B = Use-Dependent Block, CHO cells transfected with human ion channel cDNA, 0.3% DMSO
# T1 sequence (Q15858 whole entry): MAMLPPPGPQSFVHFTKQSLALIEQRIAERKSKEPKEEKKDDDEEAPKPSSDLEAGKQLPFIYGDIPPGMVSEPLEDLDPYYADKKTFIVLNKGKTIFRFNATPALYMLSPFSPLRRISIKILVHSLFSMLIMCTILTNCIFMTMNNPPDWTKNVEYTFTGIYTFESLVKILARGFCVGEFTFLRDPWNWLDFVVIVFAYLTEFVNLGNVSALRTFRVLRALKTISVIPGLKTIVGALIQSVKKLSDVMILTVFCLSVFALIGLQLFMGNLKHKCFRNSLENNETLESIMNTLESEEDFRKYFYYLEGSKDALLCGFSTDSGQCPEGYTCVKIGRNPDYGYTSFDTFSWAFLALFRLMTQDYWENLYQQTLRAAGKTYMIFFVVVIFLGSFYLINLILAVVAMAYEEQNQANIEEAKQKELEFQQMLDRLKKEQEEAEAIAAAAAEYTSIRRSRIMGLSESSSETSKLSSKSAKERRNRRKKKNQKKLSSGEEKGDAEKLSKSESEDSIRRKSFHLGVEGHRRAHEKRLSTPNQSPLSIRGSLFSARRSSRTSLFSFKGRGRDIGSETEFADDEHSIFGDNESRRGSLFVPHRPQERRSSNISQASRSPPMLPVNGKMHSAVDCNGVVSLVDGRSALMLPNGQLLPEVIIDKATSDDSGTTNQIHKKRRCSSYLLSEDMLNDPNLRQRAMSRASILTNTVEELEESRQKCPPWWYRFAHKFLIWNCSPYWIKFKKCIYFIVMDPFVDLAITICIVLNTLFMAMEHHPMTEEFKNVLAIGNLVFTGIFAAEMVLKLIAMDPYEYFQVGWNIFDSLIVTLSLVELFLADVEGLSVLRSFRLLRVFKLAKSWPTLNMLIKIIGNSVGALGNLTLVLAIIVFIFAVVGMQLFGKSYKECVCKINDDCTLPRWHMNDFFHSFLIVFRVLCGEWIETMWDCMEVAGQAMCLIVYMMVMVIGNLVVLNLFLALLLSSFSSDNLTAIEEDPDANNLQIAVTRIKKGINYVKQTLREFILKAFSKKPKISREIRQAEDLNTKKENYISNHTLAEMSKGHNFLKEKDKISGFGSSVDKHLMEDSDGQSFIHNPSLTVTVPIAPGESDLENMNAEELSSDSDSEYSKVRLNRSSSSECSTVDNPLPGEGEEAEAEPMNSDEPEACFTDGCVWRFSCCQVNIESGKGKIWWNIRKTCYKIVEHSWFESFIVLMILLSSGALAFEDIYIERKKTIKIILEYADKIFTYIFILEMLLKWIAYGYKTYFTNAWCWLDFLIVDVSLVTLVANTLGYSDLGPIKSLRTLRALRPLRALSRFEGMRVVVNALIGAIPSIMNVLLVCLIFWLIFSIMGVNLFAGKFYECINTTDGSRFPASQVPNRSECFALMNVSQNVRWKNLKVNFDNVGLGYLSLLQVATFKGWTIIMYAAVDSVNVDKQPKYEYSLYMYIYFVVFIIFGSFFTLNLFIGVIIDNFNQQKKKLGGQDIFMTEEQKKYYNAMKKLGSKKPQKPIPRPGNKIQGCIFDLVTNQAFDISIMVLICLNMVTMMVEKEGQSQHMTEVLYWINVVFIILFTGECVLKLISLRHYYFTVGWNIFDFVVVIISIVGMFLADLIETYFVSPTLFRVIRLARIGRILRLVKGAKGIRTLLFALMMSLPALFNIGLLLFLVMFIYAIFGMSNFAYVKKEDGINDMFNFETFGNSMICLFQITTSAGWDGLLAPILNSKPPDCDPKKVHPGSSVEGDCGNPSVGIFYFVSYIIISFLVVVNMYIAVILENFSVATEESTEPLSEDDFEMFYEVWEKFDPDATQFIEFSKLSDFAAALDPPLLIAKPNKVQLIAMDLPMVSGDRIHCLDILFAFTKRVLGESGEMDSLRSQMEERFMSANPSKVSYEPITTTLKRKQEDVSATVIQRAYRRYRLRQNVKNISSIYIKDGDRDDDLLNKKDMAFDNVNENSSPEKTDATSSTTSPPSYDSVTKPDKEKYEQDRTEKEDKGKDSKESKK
"IC50 [1, 3] [µM]","IC50 [1, 4] [µM]","IC50 [1, 5] [µM]",Structure (SMILES),"IC50 [2, 6] [µM]","IC50 [2, 7] [µM]","IC50 [2, 8] [µM]",IC50 [1] [µM],"IC50 [1, 9] [µM]",IC50 [2] [µM]
> 1000,> 1000,> 1000,COc1ccc(N(C)C(=O)CN(CCN(C)C)c2ccccc2)cc1 [Compound 2290],> 1000,> 1000,> 1000,–,–,–
561,463,490,COc1ccc(N(C)C(=O)CN(CCN(C)C)c2cccc(Cl)c2)cc1 [Compound 2291],808,740,693,–,–,–
165,162,167,COc1ccc(N(C)C(=O)CN(CCN(C)C)c2ccc(Cl)c(Cl)c2)cc1 [Compound 2292],208,216,193,–,–,–
> 1000,> 1000,> 1000,COc1ccc(N(CCN(C)C)CC(=O)N(C)c2ccc(OC)cc2)cc1 [Compound 2294],> 1000,> 1000,> 1000,–,–,–
265,231,210,COc1ccc(N(C)C(=O)CN(CCN(C)C)c2cccc(OC(F)(F)F)c2)cc1 [Compound 2296],254,236,222,–,–,–
74.7,66.2,54.4,COc1ccc(N(C)C(=O)CN(CCN(C)C)c2ccc(Cl)c(C(F)(F)F)c2)cc1 [Compound 2297],95.1,91.2,72.7,–,–,–
273,229,220,COc1ccc(N(C)C(=O)CN(CCN(C)C)c2cc(Cl)ccc2Cl)cc1 [Compound 2298],249,240,204,–,–,–
393,315,334,COc1ccc(N(C)C(=O)CN(CCN(C)C)c2ccc(F)c(Cl)c2)cc1 [Compound 2299],515,449,505,–,–,–
546,673,626,COc1ccc(N(C)C(=O)CN(CCN(C)C)c2cccc(Cl)c2F)cc1 [Compound 2300],327,307,259,–,–,–
312,275,235,COc1ccc(N(C)C(=O)CN(CCN(C)C)c2ccccc2C(F)(F)F)cc1 [Compound 2301],265,243,154,–,–,–
70.2,77.9,55.4,COc1ccc(N(C)C(=O)CN(CCN)c2ccccc2)cc1 [Compound 2302],124,96.8,75.9,–,–,–
15,14.5,13.1,COc1ccc(N(C)C(=O)CN(CCN2CCCCC2)c2ccccc2)cc1 [Compound 2303],16.6,13.5,9.5,–,–,–
> 1000,> 1000,> 1000,COc1ccc(N(C)C(=O)CN(CCN2CCN(C)CC2)c2ccccc2)cc1 [Compound 2304],> 1000,880,670,–,–,–

Structure (SMILES),"IC50 [1, 3] [µM]","IC50 [1, 4] [µM]","IC50 [1, 5] [µM]","IC50 [2, 6] [µM]","IC50 [2, 7] [µM]","IC50 [2, 8] [µM]",IC50 [1] [µM],"IC50 [1, 9] [µM]",IC50 [2] [µM]
COc1ccc(N(C)C(=O)CN(CCN(C)C)c2ccccc2OC)cc1 [Compound 2293],> 1000,–,–,–,> 1000,> 1000,> 1000,> 1000,> 1000
COc1ccc(N(C)C(=O)CN(CCN(C)C)c2ccccc2C)cc1 [Compound 2295],> 1000,–,–,–,> 1000,> 1000,> 1000,> 1000,> 1000
"CCN(CC)CC(=O)Nc1c(C)cccc1C [Lidocaine, reference compound]",408,23.7,113,–,–,–,–,–,–
